{
  "source": "paper PMC8840081",
  "about": "“Phenylalanine-Based AMPA Receptor Antagonist as the Anticonvulsant Agent with Neuroprotective Activity—In Vitro and In Vivo Studies” (Molecules, 2022)",
  "key": {"[1]": {"assay": "oxygen radical absorbance capacity fluorescent (ORAC-FL) assay", "conditions": "Trolox equivalent, calculated at 5 µM of compounds and Trolox", "procedure": "The ORAC-FL was performed according to procedure described in the literature. The reagents used in this assay, TX, fluorescein and 2,2′-azobis(2-amidinopropane) dihydrochloride (AAPH), were purchased from Sigma-Aldrich, Inc., St. Louis, MO, USA. The prepared ORAC-FL reagent consisted of 0.3 μM of fluorescein and 100 µM of AAPH dissolved in PBS buffer. The compounds and the reference antioxidant TX were tested at the concentration 2.5 µM and the results were compared to the blank in which no antioxidant was present. The assays were performed in black 96-well plates. The fluorescence readings were taken by a microplate reader EnSpire (PerkinElmer, Waltham, MA, USA) every minute for a duration of 240 min. The excitation wavelength was 485 nm and the emission wavelength was 520 nm. The area under the fluorescence decay curve (AUC) was calculated next by GraphPad Prism™ software (version 5.01, San Diego, CA, USA). All measurements were performed in triplicate. The TX equivalent (TE) was calculated next using the following Equation (1):TE = [(AUCsample − AUCblank)/(AUCTX − AUCblank)] × [CTX/Csample](1)"}, "[2]": {"system": "electrically induced seizures in mice", "assay": "maximal electroshock (MES) test", "type": "in vivo", "conditions": "100 mg/kg i.p.", "procedure": "(§1) Behavioral experiments were carried out in male Albino Swiss (CD-1) mice weighing 18–22 g. The mice were kept in cages, in groups of 10 animals. They had free access to food and water before experiments, and were maintained at room temperature 22–24 °C, under 12:12 (light/dark) cycle. For the assays the animals were selected randomly. After the experiments the animals were euthanized by cervical dislocation. Experimental procedures for in vivo tests were approved by the Local Ethics Committee of the Jagiellonian University in Krakow (Approval No. 33/2018; release date: 1.02.2018) and the treatment of animals was performed in full accordance with ethical standards laid down in respective Polish and EU regulations (Directive 2010/63/EU).\nOxaliplatin was purchased from Activate Scientific GmbH (Prien, Germany). PTZ and STZ were provided by Merck KGaA (Darmstadt, Germany). For the in vivo tests, the compound 1 was suspended in 1% Tween 80 solution (Polskie Odczynniki Chemiczne, Gliwice, Poland), then being administered intraperitoneally 1 h before tests. For the evaluation of anticonvulsant properties of the test compound, a fixed dose of 100 mg/kg, was used. Since many AEDs at lower doses are used as analgesic drugs, for pain tests the doses 10 and 30 mg/kg were selected.\nMES test was performed as described previously. […]"}, "[3]": {"system": "PTZ-induced clonic seizures in mice", "assay": "PTZ seizure test", "type": "in vivo", "conditions": "PTZ 100 mg/kg s.c.; compound 100 mg/kg i.p.", "procedure": "as §1\nOxaliplatin was purchased from Activate Scientific GmbH (Prien, Germany). PTZ and STZ were provided by Merck KGaA (Darmstadt, Germany). For the in vivo tests, the compound 1 was suspended in 1% Tween 80 solution (Polskie Odczynniki Chemiczne, Gliwice, Poland), then being administered intraperitoneally 1 h before tests. […]\nThis test was carried out according to the method recently described. […] In this assay the latency to the occurrence of the first clonic seizure episode was measured and compared in drug-treated and control mice. […] The number of seizure episodes was also recorded in each group. • 6-Hz Test"}, "[4]": {"system": "tactile allodynia in diabetic mice", "assay": "diabetic (STZ) neuropathic pain model, von Frey test", "type": "in vivo", "conditions": "30 mg/kg i.p.", "procedure": "Behavioral experiments were carried out in male Albino Swiss (CD-1) mice weighing 18–22 g. The mice were kept in cages, in groups of 10 animals. They had free access to food and water before experiments, and were maintained at room temperature 22–24 °C, under 12:12 (light/dark) cycle. For the assays the animals were selected randomly. After the experiments the animals were euthanized by cervical dislocation. […]\nTo induce type I diabetes and diabetic neuropathic pain, mice were administered STZ, an alkylating antitumor drug that destroys insulin-secreting islet cells. […] Blood glucose levels were measured 1 day before (referred to as ‘day 0′) and repeatedly 1, 2 and 3 weeks after STZ injection using a blood glucose monitoring system (AccuChek Active, Roche, France). […]\nThe electronic von Frey unit (Bioseb, France) is supplied with a single flexible filament applying increasing force (from 0 to 10 g) against the plantar surface of the hind paw. In this assay the nocifensive paw withdrawal response automatically turns off the stimulus and the mechanical pressure that evoked the response was recorded. […]"}},
  "data": [
    {"smiles": "NC(Cc1cc(-c2cc(O)ccc2O)c(Cl)c([N+](=O)[O-])c1)C(=O)O", "note": "(stereo not drawn) [Compound 1]", "values": [
      {"measurement": "ORAC (TE)", "setting": "[1]", "result": 3.46, "unit": "TE"},
      {"measurement": "Mortality rate (%)", "setting": "[2]", "result": 25, "unit": "%"},
      {"measurement": "X/Y, number of mice protected (X) per number of mice tested (Y)", "setting": "[2]; 1 h before test", "result": "0/4"},
      {"measurement": "latency to first clonus", "setting": "[3]", "result": "not able to prolong latency to the first clonus"},
      {"measurement": "number of seizure episodes", "setting": "[3]", "result": "remained unaffected"},
      {"measurement": "antiallodynic activity, von Frey test", "setting": "[4]", "result": "not able to attenuate tactile allodynia"}
    ]}
  ]
}
